Measurements published in ChEMBL document CHEMBL4418484, “Inhibitors of nkx2.5 for vascular remodelling” (2015).
The source made the active and inactive calls. The rule behind the calls is not given here.

How the values were obtained:
[1] = species on record: Homo sapiens; assay: Inhibition of casein kinase-2 in human pulmonary smooth muscle cells assessed as reduction in Nkx2-5 nuclear translocation
[2] = Effect on Nkx2-5 cytosolic expression in human pulmonary smooth muscle cells; assay type: ADME; details: cytosol
[3] = test system: Mus musculus; assay: Inhibition of right ventricular systolic pressure increase in […] mouse hypoxia/Sugen pre-clinical model of pulmonary hypertension at 80 mg/kg dosed daily for 20 days starting immediately post experimental initiation; assay type: functional, organism-based
[4] = species on record: Homo sapiens; assay: Inhibition of de-differentiation of human pulmonary smooth muscle cells assessed as reduction in contractile to synthetic forms change; assay type: functional
[5] = species on record: Homo sapiens; assay: Inhibition of casein kinase-2/Nkx2-5 in human pulmonary smooth muscle cells assessed as down-regulation of COL1 protein expression at 1 nM by Western blot analysis
[6] = species on record: Homo sapiens; assay: Inhibition of casein kinase-2/Nkx2-5 in human pulmonary smooth muscle cells assessed as down-regulation of COL1 protein expression at 10 nM by Western blot analysis
[7] = species on record: Homo sapiens; assay: Inhibition of casein kinase-2/Nkx2-5 in human pulmonary smooth muscle cells assessed as down-regulation of CCN2 protein expression at 1 nM by Western blot analysis
[8] = species on record: Homo sapiens; assay: Inhibition of casein kinase-2/Nkx2-5 in human pulmonary smooth muscle cells assessed as down-regulation of CCN2 protein expression at 10 nM by Western blot analysis
[9] = species on record: Homo sapiens; assay: Inhibition of casein kinase-2/Nkx2-5 in human pulmonary smooth muscle cells assessed as up-regulation of ACTA2 protein expression at 1 nM by Western blot analysis
[10] = species on record: Homo sapiens; assay: Inhibition of casein kinase-2/Nkx2-5 in human pulmonary smooth muscle cells assessed as up-regulation of ACTA2 protein expression at 10 nM by Western blot analysis
[11] = species on record: Homo sapiens; assay: Inhibition of casein kinase-2/Nkx2-5 in human pulmonary smooth muscle cells assessed as up-regulation of MYH11 protein expression at 1 nM by Western blot analysis
[12] = species on record: Homo sapiens; assay: Inhibition of casein kinase-2/Nkx2-5 in human pulmonary smooth muscle cells assessed as up-regulation of MYH11 protein expression at 10 nM by Western blot analysis
[13] = species on record: Homo sapiens; assay: Inhibition of cell migration of human pulmonary smooth muscle cells by standard scratch assay; assay type: functional
[14] = species on record: Homo sapiens; assay: Inhibition of cell proliferation of human pulmonary smooth muscle cells incubated up to 120 hrs; assay type: functional
[15] = test system: Mus musculus; assay: Inhibition of right ventricular systolic pressure increase in […] mouse hypoxia/Sugen pre-clinical model of pulmonary hypertension at 80 mg/kg dosed daily for 20 days starting 8 days post experimental initiation; assay type: functional, organism-based
[16] = test system: Mus musculus; assay: Effect on systemic pressure in […] mouse hypoxia/Sugen pre-clinical model of pulmonary hypertension at 80 mg/kg dosed daily for 20 days starting immediately post experimental initiation; assay type: ADME, organism-based; details: in vivo, 480 h
[17] = test system: Mus musculus; assay: Effect on systemic pressure in […] mouse hypoxia/Sugen pre-clinical model of pulmonary hypertension at 80 mg/kg dosed daily for 20 days starting 8 days post experimental initiation; assay type: functional, organism-based

Row | Structure (SMILES) | inhibition [1] | Activity [2] | inhibition [3] | inhibition [4] | inhibition [5] | inhibition [6] | inhibition [7] | inhibition [8] | inhibition [9] | inhibition [10] | inhibition [11] | inhibition [12] | inhibition [13] | inhibition [14] | inhibition [15] | Activity [16] | Activity [17]
1 | COc1cc(Nc2ncc3ccn(-c4cccc(CCC#N)c4)c3n2)cc(OC)c1OC | Active | Non-Toxic |  |  |  |  |  |  |  |  |  |  |  |  |  |  | 
2 | O=C(O)c1ccc2c(c1)nc(Nc1cccc(Cl)c1)c1ccncc12 [SILMITASERTIB] |  |  | Active | Dose-dependent effect | Active | Active | Active | Active | Active | Active | Active | Active | Dose-dependent effect | Dose-dependent effect | Active | Non-Toxic | inactive
